Measured values from ChEMBL document CHEMBL1130324, “Exceptionally potent antispermatogenic compounds from 8-halogenation of (4aRS,5SR,9bRS)-hexahydroindeno-[1,2-c]pyridines” (1997).

Experiments:
Assay type in all cases: functional
Mus musculus [1] = experiment: Spermatogenic index (percent change from vehicle control) was calculated in Adult Male Swiss Mice at 2 (umol/kg) dose
Mus musculus [2] = experiment: Spermatogenic index (percent change from vehicle control) was calculated in Adult Male Swiss Mice at 20 (umol/kg) dose
Mus musculus [3] = experiment: Spermatogenic index (percent change from vehicle control) was calculated in Adult Male Swiss Mice at 6 (umol/kg) dose
Mus musculus [4] = experiment: Spermatogenic index (percent change from vehicle control) was calculated in Adult Male Swiss Mice at 25 (umol/kg) dose
Mus musculus [5] = experiment: Spermatogenic index (percent change from vehicle control) was calculated in Adult Male Swiss Mice at 7 (umol/kg) dose
Mus musculus [6] = experiment: Spermatogenic index (percent change from vehicle control) was calculated in Adult Male Swiss Mice at 3 (umol/kg) dose
Mus musculus [7] = experiment: Spermatogenic index (percent change from vehicle control) was calculated in Adult Male Swiss Mice at 75 (umol/kg) dose
Mus musculus [8] = experiment: Spermatogenic index (percent change from vehicle control) was calculated in Adult Male Swiss Mice at 8 (umol/kg) dose
Mus musculus [9] = experiment: Spermatogenic index (percent change from vehicle control) was calculated in Adult Male Swiss Mice at 21 (umol/kg) dose
Mus musculus [10] = experiment: Spermatogenic index (percent change from vehicle control) was calculated in Adult Male Swiss Mice at 62 (umol/kg) dose
Mus musculus [11] = experiment: Spermatogenic index (percent change from vehicle control) was calculated in Adult Male Swiss Mice at 26 (umol/kg) dose
Mus musculus [12] = experiment: Spermatogenic index (percent change from vehicle control) was calculated in Adult Male Swiss Mice 79 (umol/kg) dose
Mus musculus [13] = experiment: Spermatogenic index (percent change from vehicle control) was calculated in Adult Male Swiss Mice at 0.6 (umol/kg) dose
Mus musculus [14] = experiment: Spermatogenic index (percent change from vehicle control) was calculated in Adult Male Swiss Mice at 19 (umol/kg) dose

## CCN1CC[C@H]2[C@H](c3ccc(C(=O)O)cc3)c3cc(C)c(I)cc3[C@H]2C1
Mus musculus [1]
  SI: -67%
Mus musculus [2]
  SI: -76%
Mus musculus [3]
  SI: -66%

## CCN1CC[C@H]2[C@H](c3ccc(C(=O)O)cc3)c3cc(C)c(Cl)cc3[C@H]2C1
Mus musculus [1]
  SI: -55%
Mus musculus [4]
  SI: -72%
Mus musculus [5]
  SI: -66%

## CCN1CC[C@H]2[C@H](c3ccc(C(=O)OC)cc3)c3cc(C)ccc3[C@H]2C1
Mus musculus [4]
  SI: -33%
Mus musculus [6]
  SI: 3%
Mus musculus [7]
  SI: -64%
Mus musculus [8]
  SI: -2%

## CCN1CC[C@H]2[C@H](c3ccc(C(=O)O)cc3)c3cc(C)c(Br)cc3[C@H]2C1
Mus musculus [9]
  SI: -71%
Mus musculus [3]
  SI: -69%
Mus musculus [10]
  SI: -72%

## CCN1CC[C@H]2[C@H](c3ccc(C(=O)O)cc3)c3cc(C)ccc3[C@H]2C1
Mus musculus [11]
  SI: -24%
Mus musculus [12]
  SI: -52%

## CCN1CC[C@H]2[C@H](c3ccc(C(=O)OC)cc3)c3cc(C)c(I)cc3[C@H]2C1 (stereo in doubt; 2b)
Mus musculus [1]
  SI: -57%
Mus musculus [2]
  SI: -74%
Mus musculus [3]
  SI: -69%

## CCN1CC[C@H]2[C@H](c3ccc(C(=O)OC)cc3)c3cc(C)c(I)cc3[C@H]2C1 (stereo in doubt; (l)-2b)
Mus musculus [13]
  SI: -34%
Mus musculus [14]
  SI: -72%
Mus musculus [1]
  SI: -66%
Mus musculus [3]
  SI: -71%
